The values that follow come from patent publication US20150111896A1, “HEMATOPOIETIC PROTECTION AGAINST CHEMOTHERAPEUTIC COMPOUNDS USING SELECTIVE CYCLIN-DEPENDENT KINASE 4/6 INHIBITORS” (The University of North Carolina at Chapel Hill, priority 2008, published 2015).

Series [1] relates to human patients with malignancies. As to conditions: serially treated; cited from earlier work.
The subject of series [2] is human melanoma cells lacking INK4a/ARF (WM2664). The experiment in a line: Cell cycle analysis (BrdU and propidium iodide, flow cytometry). Format: cell-based. As to conditions: WM2664 (CDK4/6-dependent), 24 hours treatment. On the procedure: (§1) Cells were cultured in DMEM+10% FBS.
(§2) Cell cycle analysis: Cell cycle analysis was performed using BrdU and propidium iodide (both from BD Biosciences Pharmigen, San Jose, Calif., United States of America) following the manufacturer's protocol. Cells were treated for 24 hours with a test compound at a desired dose prior to 15 minutes BrdU pulse, cell harvesting, fixation, staining, and analysis by flow cytometry.
(§3) Histograms of dose-response curves of PD332991 and 2BrIC in HS68, WM2664 and A2058 cells were analyzed using Mod-Fit™ software from Verity Software House (Topsham, Me., United States of America).

For series [3], the system named is telomerized human diploid fibroblast (tHDF) cells (HS68). The description is as above. In kind it is cell-based. To be noted: HS68 (CDK4/6-dependent), 24 hours treatment. The method, then:
as §1, §2, §3

Series [4] concerns human melanoma cells lacking INK4a/ARF (WM2664). As to the kind of experiment: Cell proliferation assay (WST-1 or CellTiter-Glo) after chemotherapeutic. To be noted: WM2664 (CDK4/6-dependent); pretreatment prior to carboplatin, etoposide or doxorubicin. (In general: Tetrazolium assays rely on reduction of a dye to a coloured formazan, in cell work by metabolically active cells.)
Description: (§6) In some embodiments, cell viability is assessed by performing a assay using 2-(4-iodophenyl)-3-(4-nitrophenyl)-5-(2,4-disulfophenyl)-2H-tetrazolium monosodium salt (WST-1), such as described further hereinbelow. In the WST-1 assay, WST-1 is cleaved by a mitochondrial reductase present in viable cells to form a colored product (i.e., formazan) that can be detected by measuring absorbance at a particular wavelength (e.g., 420-480 nm). […] The CellTiter-Glo® assay (CTG assay; Promega, Madison, Wis., United States of America) measures cell viability by measuring ATP concentration in cell lysate.
(§7) Cell lines: Telomerized human diploid fibroblast (tHDF) cells (HS68) were cultured in Dulbecco's Modified Eagle Medium (DMEM) +10% fetal bovine serum (FBS) with any additional compounds. The same conditions were used for A2058 and WM2664, human melanoma cell lines with known RB-pathway mutations: A2058 is RB-null, whereas WM2664 lacks INK4a/ARF. Thus, A2058 cells are CDK4/6-independent, while WM2664 cells are CDK4/6-dependent. Cells were cultured in DMEM+10% FBS.
(§8) Cell proliferation assays: Cell proliferation assays were performed by seeding 1×10^3 cells per well in a 96-well tissue culture plate in 100 μL of growth medium. Cells were treated as indicated with compound from Table 1 and doxorubicin, etoposide or carboplatin. Following treatment, cells were allowed to recover for 7 days in normal growth medium. At the end of the recovery period, cell number was quantified using the VVST-1 cell proliferation assay (TaKaRa Bio USA, Madison, Wis., United States of America) or the CellTiter-Glo® assay (CTG; Promega, Madison, Wis., United States of America). Data is presented as absorbance at 450 nm for the WST assays or Relative Light Units (RLU) for the CTG assays.

Series [5] has as its system human RB-null melanoma cells (A2058). The experiment in a line: γH2AX assay (DNA damage, flow cytometry). In kind it is cell-based. To be noted: 16 hours pretreatment, then 8 hours Carbo, Etop or Dox.
Description: (§4) Reduction in DNA damage effected by the test compound or maintenance of cell viability effected by the test compound in cells treated with cytotoxic compounds can be assessed in any suitable manner. For example, DNA damage in cell populations can be assessed by performing a gamma-H2AX assay as described further herein below. Mammalian cells respond to agents that introduce DNA double-stranded breaks with the immediate and substantial phosphorylation of histone H2AX. Thus, detection of the phosphorylated H2AX, termed gamma-H2AX (γH2AX), using commercially available antibodies, can serve as a measure of DNA damage in cells.
as §1
(§5) γH2AX assay: For γH2AX assay, cells were treated with a dose response of PD332991 or 2BrIC for 24 hours. Cells were fixed, permeabilized, and stained with anti-γH2AX antibody as per γH2AX Flow Kit (Millipore, Billerica, Mass., United States of America). γH2AX levels were assessed by flow cytometry.
A general note: In flow cytometry, cells or beads pass a laser one at a time.

Series [6] relates to human melanoma cells lacking INK4a/ARF (WM2664). The experiment in a line: γH2AX assay (DNA damage, flow cytometry). To be noted: 16 hours pretreatment. In kind it is cell-based.
Description: as §4, §1, §5

Series [7] relates to telomerized human diploid fibroblast (tHDF) cells (HS68). The experiment in a line: γH2AX assay (DNA damage, flow cytometry). In kind it is cell-based. As to conditions: 16 hours pretreatment, then 8 hours Carbo, Etop or Dox.
Description: as §4, §1, §5

For series [8] the test system is unchanged. As to the kind of experiment: Cell proliferation assay (WST-1 or CellTiter-Glo) after chemotherapeutic. As to conditions: HS68 (CDK4/6-dependent); pretreatment prior to carboplatin, etoposide or doxorubicin.
Description: as §6, §7, §8
Series [9] relates to hematopoietic stem and progenitor cells (HSPC). The experiment in a line: In vivo pharmacodynamic assay (BrdU incorporation, Ki67) in bone marrow. Also noted: species or system mice. On the procedure: PD0332991: For HSPC proliferation experiments, mice received daily oral gavage with PD0332991 150 mg/kg for 2 days with 1 mg BrdU intraperitoneal injection (i.p.) every 6 hours for 24 hours prior to sacrifice.
2BrIC: For HSPC proliferation experiments, mice were treated with two doses of 2-bromo-12,13-dihydro-5H-indolo[2,3-a]pyrrolo[3,4-c]carbazole-5,7(6H)-dione (2BrIC) 300 mg/kg oral gavage or vehicle control. 2BrIC was solubilized for oral gavage using formulation #6 from the Hot Rod formulation kit (Pharmatek, Inc., San Diego, Calif., United States of America). 2BrIC was administered 2 hours prior to BrdU administration and readministered at the time of the BrdU 1 mg i.p. injection. After BrdU+/−2BrIC treatment for the indicated times, the mice were sacrificed and bone marrow harvested for immunophenotyping, and BrdU analysis.
Bone marrow (BM) was harvested from femurs of mice, pooled, and centrifuged to purify bone marrow mononuclear cells (BM-MNCs). Cells were then incubated for 5 minutes in ACK buffer to lyse red blood cells. All antibodies were from BD Pharmingen (San Jose, Calif., United States of America) unless otherwise indicated. Purified BM-MNCs were incubated with mouse lineage mixture biotin conjugated antibody, followed by streptavidin-FITC. Cells were then stained with Sca-1-PE-Cy7 and c-kit-APC-alexa750 antibodies. Cell viability was assessed using LIVE/DEAD Aqua Dead Cell Stain Kit (Invitrogen Corporation, Carlsbad, Calif., United States of America). For BrdU incorporation assay, the cells were fixed, permeablized, and stained with an APC BrdU Flow Kit according to the manufacturer's instruction. In all experiments, PE-Cy7, FITC, APC-alexa750, and the Aqua Dead cell stain isotype controls were included as appropriate. Flow cytometric analysis was performed using a CyAn ADP (Dako, Glostrup, Denmark). For each sample, a minimum of 500,000 cells was analyzed and the data were analyzed using FlowJo software (Tree Star, Ashland, Oreg., United States of America).

Series [10] concerns mice exposed to chemotherapeutic agents. As to the kind of experiment: Myelosuppression assay: weekly complete blood counts. Format: in vivo. To be noted: for protection of blood cell counts (platelets, hemoglobin, lymphocytes, granulocytes) from doxorubicin: 150 mg/kg oral gavage 1 hour before DOX 10 mg/kg i.p., repeated after 7 days, blood at fourteen days; for protection of blood cell counts (platelets, hemoglobin, lymphocytes, granulocytes) from carboplatin: 150 mg/kg oral gavage one hour before Carbo 100 mg/kg i.p., blood at seven day intervals. The method, then:
PD0332991: In the carboplatin experiments, mice were treated with a single dose of PD0332991 150 mg/kg oral gavage or vehicle control followed by carboplatin 100 mg/kg IP injection. In the doxorubicin experiments, mice were treated with a PD0332991 150 mg/kg by oral gavage or vehicle control one hour before doxorubicin 10 mg/kg by IP injection on day 0 and then repeated on day 7.
2BrIC: Mice were treated with a single dose of carboplatin 100 mg/kg by IP injection and two doses of 2BrIC 150mg/kg oral gavage or vehicle control. Mice were pretreated with 2BrIC two hours prior to carboplatin administration and then readministered a second dose of 2BrIC at the time of the carboplatin injection.
Baseline complete blood count (CBC) analysis were performed on a subset of mice prior to drug administration. Following drug administration (chemotherapy+/−indicated CDK4/6 inhibitor or control), mice were monitored weekly for the presence of myelosuppression by CBC analysis. CBC analysis was performed using BD Microtainer tubes with K2E (K2EDTA), 40 μL of blood was collected by tail vein nick. Blood was analyzed using a HESKA CBC-Diff Veterinary Hematology System. CBC analysis included measurement of white blood cells, lymphocytes, granulocytes, monocytes, hematocrit, red blood cells, hemoglobin, platelets, and other common hematological parameters.

Series [11] deals with human RB-null melanoma cells (A2058). As to the kind of experiment: Cell proliferation assay (WST-1 or CellTiter-Glo) after chemotherapeutic. As to conditions: A2058 (CDK4/6-independent); pretreatment prior to carboplatin, etoposide or doxorubicin.
Description: as §6, §7, §8
The test system of a further series is tumor bearing mice. To be noted: serially treated; cited from earlier work.

As to `CC(=O)c1c(C)c2cnc(Nc3ccc(N4CCNCC4)cn3)nc2n(C2CCCC2)c1=O` [PD0332991, 6-acetyl-8-cyclopentyl-5-methyl-2-(5-piperazin-1-yl-pyridin-2-ylamino)-8H-pyrido-[2,3-d]-pyrimidin-7-one], the “erythroid, platelet and myeloid (monocyte+granulocyte) lineages upon administration” value (in series [1]; in the series with tumor bearing mice) was “decrease” in each case. The cell cycle effect entry in [2] is “strong, clean and reversible G1-arrest”; in series [3], “strong, clean and reversible G1-arrest”. Moreover, the figures for the “protection from chemotherapy-induced cytotoxicity (cell proliferation assays)” value in [4], in series [8] and in series [11] were “significant protection”, “significant protection” and “not”, respectively. Also, the “protection from doxorubicin-, carboplatin- or etoposide-induced DNA damage (gamma-H2AX)” value in series [5] is given as “inability”; in series [6] (then 8 hours Carbo, Etop or Dox), “attenuated γH2AX staining”; in series [7], “attenuated γH2AX staining”; in series [7] (listed as PD 0332991), “ability”. In [6] (then 8 hours carboplatin), the “protection from carboplatin-induced DNA damage (gamma-H2AX positive cells)” value is given as “ability”. Moreover, the “protection from doxorubicin-induced DNA damage (gamma-H2AX positive cells)” value in series [6] (then 8 hours doxorubicin) was “ability”. The “protection from etoposide-induced DNA damage (gamma-H2AX positive cells)” value in [6] (then 8 hours etoposide) was “ability”. Further, in series [9] (150 mg/kg daily oral gavage, 48 hours), the “proliferation of granulocyte-monocyte progenitors (GMP) and megakaryocyte-erythroid progenitors (MEP)” value is reported as “weaker effects”. Moreover, the “proliferation in early HSPC populations (BrdU incorporation and Ki67 expression)” value in series [9] (48 hours treatment, 24 hour exposure to BrdU) was “clearly reduces proliferation”. The “frequency of HSC doubly positive for expression of Ki67 and BrdU” value in series [9] (HSC (Lin−Kit+Sca1+CD48−CD150+), 150 mg/kg daily oral gavage, 48 hours, C57BII/6 mice) was “significantly decreased”. In addition, the “proliferation of oligopotent progenitors (Ki67, BrdU)” value in [9] (Lin−Kit+Sca1−, 150 mg/kg daily oral gavage, 48 hours) is recorded as “modest inhibition of proliferation”. In addition, in [9] (MPP (Lin−Kit+Sca1+CD48−CD150−), 150 mg/kg daily oral gavage, 48 hours), the “proliferation of multipotent progenitor cell compartment (Ki67, BrdU)” value is given as “more pronounced inhibition of proliferation”. Moreover, the “proliferation of Lin−Kit−Sca1− and Lin+ cells” value in series [9] (more fully differentiated cells, 150 mg/kg daily oral gavage, 48 hours) is “no change in proliferation”. Besides, the figures for the “protection of blood cell counts (platelets, hemoglobin, lymphocytes, granulocytes) from doxorubicin” value in series [10] and in series [10] (listed as PD332991) were “provides quadrilineage protection” and “protected”, respectively. For the same compound, the “protection of blood cell counts (platelets, hemoglobin, lymphocytes, granulocytes) from carboplatin” value in series [10] is listed as “provides quadrilineage protection”; in series [10] (listed as PD332991), “protected”.
